In the test the target is T1, human mAChR M1 (Homo sapiens, UniProt P11229).
T1 construct: host or cells: CHO-K1
T1 sequence (P11229 1-460): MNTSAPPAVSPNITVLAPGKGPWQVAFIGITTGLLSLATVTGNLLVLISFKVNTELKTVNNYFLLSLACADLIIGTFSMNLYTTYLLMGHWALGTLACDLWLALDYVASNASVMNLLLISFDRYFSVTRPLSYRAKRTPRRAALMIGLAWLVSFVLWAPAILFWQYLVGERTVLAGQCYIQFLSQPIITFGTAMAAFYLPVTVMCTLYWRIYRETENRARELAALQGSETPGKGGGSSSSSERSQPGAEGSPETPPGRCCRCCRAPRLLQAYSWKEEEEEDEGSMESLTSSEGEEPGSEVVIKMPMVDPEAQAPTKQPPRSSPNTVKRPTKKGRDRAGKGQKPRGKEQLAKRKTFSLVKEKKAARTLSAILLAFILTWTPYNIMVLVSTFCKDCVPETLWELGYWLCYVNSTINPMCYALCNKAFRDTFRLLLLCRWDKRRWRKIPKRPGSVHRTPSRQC
As to the kind of experiment: mAChR M1 cell-based functional assay (calcium mobilization, Fluo-4, FDSS). To be noted: CHO-K1 cells stably expressing hM1; for Emax: EC20 acetylcholine response, read-out: Human M1 Emax; for EC50: positive allosteric modulator activity as increase in the EC20 acetylcholine response. On the procedure:
Chinese hamster ovary (CHO-K1) cells stably expressing rat (r)M1 were purchased from the American Type Culture Collection and cultured according to their indicated protocol. […] To make stable rM2, hM2, rM3, hM4, and rM4 cell lines for use in calcium mobilization assays, these cells also were stably transfected with a chimeric G-protein (Gqi5) (provided by B. R. Conklin, University of California, San Francisco) using Lipofectamine 2000. rM1, hM1, rM3, hM3, rM5, and hM5 cells were grown in Ham's F-12 medium containing 10% heat-inactivated fetal bovine serum (FBS), 20 mM HEPES, and 50 μg/mL G418 sulfate. rM2-Gqi5, hM2-Gqi5, and hM4-Gqi5 cells were grown in the same medium also containing 500 μg/mL Hygromycin B. Stable rM4-Gqi5 cells were grown in DMEM containing 10% heat-inactivated FBS, 20 mM HEPES, 400 μg/mL G418 sulfate, and 500 μg/mL Hygromycin B.
For high throughput measurement of agonist-evoked increases in intracellular calcium, CHO-K1 cells stably expressing muscarinic receptors were plated in growth medium lacking G418 and hygromycin at 15,000 cells/20 μL/well in Greiner 384-well black-walled, tissue culture (TC)-treated, clear-bottom plates (VWR). Cells were incubated overnight at 37° C. and 5% CO2. […] Compound master plates were formatted in an 11 point CRC format (1:3 dilutions) in 100% DMSO with a starting concentration of 10 mM using the BRAVO liquid handler (Agilent). Test compound CRCs were then transferred to daughter plates (240 nL) using the Echo acoustic plate reformatter (Labcyte, Sunnyvale, Calif.) and then diluted into assay buffer (40 μL) to a 2× stock using a Thermo Fisher Combi (Thermo Fisher Scientific, Waltham, Mass.).
Calcium flux was measured using the Functional Drug Screening System (FDSS) 6000 (Hamamatsu Corporation, Tokyo, Japan) as an increase in the fluorescent static ratio. Compounds were applied to cells (20 μL, 2×) using the automated system of the FDSS 6000 at 4 s into the 300 s protocol and the data were collected at 1 Hz. […] Agonist activity was analyzed as a concentration-dependent increase in calcium mobilization upon compound addition. Positive allosteric modulator activity was analyzed as a concentration-dependent increase in the EC20 acetylcholine response. Antagonist activity was analyzed as a concentration-dependent decrease in the EC80 acetylcholine response. Concentration-response curves were generated using a four-parameter logistical equation in XLfit curve fitting software (IDBS, Bridgewater, N.J.) for Excel (Microsoft, Redmond, Wash.) or Prism (GraphPad Software, Inc., San Diego, Calif.).
The compound numbers correspond to the compound numbers used in Table 1.
For orientation: Calcium assays in cells follow changes in intracellular calcium, usually with a dye or a luminescent sensor.

Our source for the Emax and EC50 values is patent US10899759B2, “Positive allosteric modulators of the muscarinic acetylcholine receptor M1” (Vanderbilt University, priority 2016, dated 2021).

Regarding `CC1COCCC1NC(=O)c1cc(Cc2ccc(-c3ccn(C)n3)cc2)c2ccsc2n1` (stereo not drawn) [Compound 93, 4-[[4-(1-methylpyrazol-3-yl)phenyl]methyl]-N-(3-methyltetrahydropyran-4-yl)thieno[2,3-b]pyridine-6-carboxamide], the Emax (usually the maximal effect, on the per cent scale that the assay sets) is 59.5% and the EC50 (in general, the midpoint of the concentration-response curve) came to 740 nM.

As to `Cn1ccc(-c2ccc(Cc3cc(C(=O)N[C@@H]4CCC[C@H]4O)nc4c3ccn4C)cc2)n1` [Compound 42, N-[(1R,2R)-2-hydroxycyclopentyl]-1-methy1-4-[[4-(1-methylpyrazol-3-yl)phenyl]methyl]pyrrolo[2,3-b]pyridine-6-carboxamide], the maximal response (Emax) came to 74.3% and the EC50 was 370 nM.

With `Cn1ccc(-c2ccc(Cc3cc(C(=O)N[C@H]4CCOC[C@@H]4O)nc4sccc34)cc2)n1` [Compound 89, N-[(3R,4S)-3-hydroxytetrahydropyran-4-yl]-4-[[4-(1-methylpyrazol-3-yl)phenyl]methyl]thieno[2,3-b]pyridine-6-carboxamide], the Emax was 41.2% and the 50% effective concentration (EC50) was found to be 40 nM.

Regarding `CCn1ccc2c(Cc3ccc(-n4cccn4)cc3)cc(C(=O)N[C@H]3CCCCC[C@@H]3O)nc21` [Compound 15, 1-ethyl-N-[(1S,2S)-2-hydroxycycloheptyl]-4-[(4-pyrazol-1-ylphenyl)methyl]pyrrolo[2,3-b]pyridine-6-carboxamide], the maximal effect (Emax) is 61.8% and the half-maximal effective concentration (EC50) turned out to be 140 nM.

Consider `Cn1ccc(-c2ccc(Cc3cc(C(=O)NC[C@@H]4CCCO4)nc4c3ccn4C)cn2)n1` [Compound 158, 1-methyl-4-[[6-(1-methylpyrazol-3-yl)-3-pyridyl]methyl]-N-[[(2S)-tetrahydrofuran-2-yl]methyl]pyrrolo[2,3-b]pyridine-6-carboxamide], for which the maximal response (Emax) was 72.1% and the EC50 stood at 360 nM.

Take `Cn1ccc(-c2ccc(Cc3cc(C(=O)NC4CC(F)(F)C4)nc4sccc34)cc2)n1` [Compound 98, N-(3,3-difluorocyclobutyl)-4-[[4-(1-methylpyrazol-3-yl)phenyl]methyl]thieno[2,3-b]pyridine-6-carboxamide]: the maximal effect (Emax) turned out to be 68.7% and the 50% effective concentration (EC50) was determined as 1650 nM.

`Cn1ncc2c(Cc3ccc(-c4cscn4)cc3)cc(C(=O)N[C@H]3CC[C@@H]3O)nc21` [Compound 31, N-[(1S,2S)-2-hydroxycyclobutyl]-1-methyl-4-[(4-thiazol-4-ylphenyl)methyl]pyrazolo[3,4-b]pyridine-6-carboxamide]: the Emax is 79.7% and the concentration giving a half-maximal response (EC50) stood at 3830 nM.

Take `Cn1ccc(-c2ccc(Cc3cc(C(=O)NC4CCOCC4(C)C)nc4sccc34)cn2)n1` (stereo not drawn) [Compound 105, N-(3,3-dimethyltetrahydropyran-4-yl)-4-[[6-(1-methylpyrazol-3-yl)-3-pyridyl]methyl]thieno[2,3-b]pyridine-6-carboxamide]: the maximum response (Emax) is 63.5% and the EC50 came to 370 nM.

Turning to `Cn1cc(-c2ccc(Cc3cc(C(=O)N[C@H]4CCOC[C@@H]4O)nc4c3ccn4C)cn2)cn1` [Compound 45, N-[(3R,4S)-3-hydroxytetrahydropyran-4-yl]-1-methyl-4-[[6-(1-methylpyrazol-4-yl)-3-pyridyl]methyl]pyrrolo[2,3-b]pyridine-6-carboxamide], the maximum response (Emax) was found to be 74.3% and the EC50 came out at 10 nM.

`COCCNC(=O)c1cc(Cc2ccc(-n3cccn3)cc2)c2ccsc2n1` [Compound 85, N-(2-methoxyethyl)-4-[(4-pyrazol-1-ylphenyl)methyl]thieno[2,3-b]pyridine-6-carboxamide]: the maximal response (Emax) was found to be 58.6% and the concentration for a half-maximal effect (EC50) stood at 70 nM.

Turning to `Cn1ccc(-c2ccc(Cc3cc(C(=O)NC4CC(F)C4)nc4sccc34)cc2)n1` (stereo not drawn) [Compound 97, N-(3-fluorocyclobutyl)-4-[[4-(1-methylpyrazol-3-yl)phenyl]methyl]thieno[2,3-b]pyridine-6-carboxamide], the Emax was found to be 65.9% and the EC50 is 140 nM.

In the case of `Cn1ccc2c(Cc3ccc(-c4cscn4)cc3)cc(C(=O)NC3CCOCC3)nc21` [Compound 2, 1-methyl-N-tetrahydropyran-4-yl-4-[(4-thiazol-4-ylphenyl)methyl]pyrrolo[2,3-b]pyridine-6-carboxamide], the Emax turned out to be 71.2% and the EC50 came to 230 nM.

As to `O=C(NC1CCOCC1)c1cc(Cc2ccc(-n3cccn3)cc2)c2ccsc2n1` [Compound 71, 4-[(4-pyrazol-1-ylphenyl)methyl]-N-tetrahydropyran-4-yl-thieno[2,3-b]pyridine-6-carboxamide], the maximal response (Emax) was 73.4% and the EC50 was 140 nM.

Turning to `CC1CC(NC(=O)c2cc(Cc3ccc(-n4cccn4)cc3)c3ccsc3n2)CC(C)O1` (stereo not drawn) [Compound 73, N-(2,6-dimethyltetrahydropyran-4-yl)-4-[(4-pyrazol-1-ylphenyl)methyl]thieno[2,3-b]pyridine-6-carboxamide], the maximum response (Emax) worked out at 68.1% and the EC50 was determined as 370 nM.

For `Cc1nc(-c2ccc(Cc3cc(C(=O)NC4CCOCC4C)nc4sccc34)cc2)co1` (stereo not drawn) [Compound 134, 4-[[4-(2-methyloxazol-4-yl)phenyl]methyl]-N-(3-methyltetrahydropyran-4-yl)thieno[2,3-b]pyridine-6-carboxamide], the Emax came to 51.4% and the EC50 is 1220 nM.

On to `Cn1ccc(-c2ccc(Cc3cc(C(=O)N[C@H]4CCCC[C@@H]4O)nc4c3ccn4C)cc2)n1` [Compound 38, N-[(1S,2S)-2-hydroxycyclohexyl]-1-methyl-4-[[4-(1-methylpyrazol-3-yl)phenyl]methyl]pyrrolo[2,3-b]pyridine-6-carboxamide], for which the maximum response (Emax) amounted to 78.6% and the 50% effective concentration (EC50) worked out at 130 nM.

As to `O=C(N[C@H]1CCCC[C@@H]1O)c1cc(Cc2ccc(-n3cccn3)cc2)c2ccsc2n1` [Compound 69, N-[(1S,2S)-2-hydroxycyclohexyl]-4-[(4-pyrazol-1-ylphenyl)methyl]thieno[2,3-b]pyridine-6-carboxamide], the Emax was 52.9% and the EC50 was found to be 30 nM.

Consider `O=C(NC1CC2(COC2)C1)c1cc(Cc2ccc(-n3cccn3)cc2)c2ccsc2n1` [Compound 80, N-(2-oxaspiro[3.3]heptan-6-yl)-4-[(4-pyrazol-1-ylphenyl)methyl]thieno[2,3-b]pyridine-6-carboxamide], for which the Emax was found to be 72.3% and the 50% effective concentration (EC50) was 430 nM.

With `Cc1nc(-c2ccc(Cc3cc(C(=O)NC4CC5(COC5)C4)nc4c3ccn4C)cc2)co1` [Compound 54, 1-methyl-4-[[4-(2-methyloxazol-4-yl)phenyl]methyl]-N-(2-oxaspiro[3.3]heptan-6-yl)pyrrolo[2,3-b]pyridine-6-carboxamide], the Emax was 84.6% and the EC50 was 380 nM.

Regarding `Cn1ncc2c(Cc3ccc(-c4cscn4)cc3)cc(C(=O)NC3CCOCC3)nc21` [Compound 1, 1-methyl-N-tetrahydropyran-4-yl-4-[(4-thiazol-4-ylphenyl)methyl]pyrazolo[3,4-b]pyridine-6-carboxamide], the Emax stood at 69% and the 50% effective concentration (EC50) came out at 1420 nM.

In the case of `Cn1ccc2c(Cc3ccc(-c4nccs4)cc3)cc(C(=O)N[C@H]3CCC[C@@H]3O)nc21` [Compound 64, N-[(1S,2S)-2-hydroxycyclopentyl]-1-methyl-4-[(4-thiazol-2-ylphenyl)methyl]pyrrolo[2,3-b]pyridine-6-carboxamide], the maximal effect (Emax) was 57.2% and the EC50 is 33600 nM.
